17 molecules from patent US11377441B2, “Covalent inhibitors of KRAS” (Araxes Pharma LLC, priority 2017, dated 2022) can be followed below.

The assay has as its target T1, KRAS G12C 1-169, his-tagged protein, GDP-loaded (Homo sapiens, UniProt P01116, G12C).
T1 construct: KRAS G12C 1-169, his-tagged protein, GDP-loaded
Put plainly: Biochemical assay: covalent modification of KRAS G12C measured by mass spectrometry (RapidFire/TOF or Q-Exactive). The class given is binding. The conditions noted are these: covalent binding to (modification of) KRAS G12C after a ten minute incubation period. The method in brief: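 Intact-mass readout (TOF or Q-Exactive, charge-envelope deconvolution) gives percent covalent adduct from modified and unmodified species. Compound at 10, 30 or 100 μM was incubated at room temperature for 10 min to 24 h with 2 μM or 0.5 μM GDP-bound KRAS G12C 1-169 in Hepes/NaCl/MgCl2 buffer, then acid-quenched.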

For the molecule `[2H]C([2H])([2H])N(C1CN(c2nc(N3C[C@@H](C)N(C(=O)C=C)C[C@@H]3C)c3cc(Cl)c(-c4c(C)ccc5[nH]nc(C6CC6)c45)c(F)c3n2)C1)C([2H])([2H])[2H]` (atropisomer, axis not shown) [Compound 223, 1-((2R,5S)-4-((S)-6-chloro-7-(3-cyclopropyl-5-methyl-1H-indazol-4-yl)-2-(3-(di-perdeuteromethylamino)azetidin-1-yl)-8-fluoroquinazolin-4-yl)-2,5-dimethylpiperazin-1-yl)prop-2-en-1-one], the Binding % result was “+ (+ indicates binding activity greater than 0% and up to 50%)”.

As to `[2H]C([2H])([2H])N(C1CN(c2nc(N3C[C@@H](C)N(C(=O)C=C)C[C@@H]3C)c3cc(Cl)c(-c4c(C)ccc5[nH]nc(C6CC6)c45)c(F)c3n2)C1)C([2H])([2H])[2H]` (atropisomer, axis not shown) [Compound 224, 1-((2R,5S)-4-((R)-6-chloro-7-(3-cyclopropyl-5-methyl-1H-indazol-4-yl)-2-(3-(di-perdeuteromethylamino)azetidin-1-yl)-8-fluoroquinazolin-4-yl)-2,5-dimethylpiperazin-1-yl)prop-2-en-1-one], the Binding % entry is “+ (+ indicates binding activity greater than 0% and up to 50%)”.

For the molecule `C=CC(=O)N1C[C@H](C)N(c2nc(OC[C@@H]3CCCN3C)nc3c(F)c(-c4c(C)ccc5[nH]nc(C6CC6)c45)c(Cl)cc23)C[C@H]1C` (atropisomer, axis not shown) [Compound 227, 1-((2R,5S)-4-((S)-6-chloro-7-(3-cyclopropyl-5-methyl-1H-indazol-4-yl)-8-fluoro-2-(((S)-1-methylpyrrolidin-2-yl)methoxy)quinazolin-4-yl)-2,5-dimethylpiperazin-1-yl)prop-2-en-1-one], the Binding % entry was “+ (+ indicates binding activity greater than 0% and up to 50%)”.

For the molecule `C=CC(=O)N1C[C@H](C)N(c2nc(OC[C@@H]3CCCN3C)nc3c(F)c(-c4c(C)ccc5[nH]nc(C6CC6)c45)c(Cl)cc23)C[C@H]1C` (atropisomer, axis not shown) [Compound 228, 1-((2R,5S)-4-((R)-6-chloro-7-(3-cyclopropyl-5-methyl-1H-indazol-4-yl)-8-fluoro-2-(((S)-1-methylpyrrolidin-2-yl)methoxy)quinazolin-4-yl)-2,5-dimethylpiperazin-1-yl)prop-2-en-1-one], the Binding % result is on record as “+++ (+++ indicates binding activity greater than 80%)”.

Regarding `C=CC(=O)N1C[C@H](C)N(c2nc(OC[C@@H]3CCCN3C)nc3c(F)c(-c4c(C)ccc5cnn(C)c45)c(Cl)cc23)C[C@H]1C` (atropisomer, axis not shown) [Compound 234, 1-((2R,5S)-4-((S)-6-chloro-7-(1,6-dimethyl-1H-indazol-7-yl)-8-fluoro-2-(((S)-1-methylpyrrolidin-2-yl)methoxy)quinazolin-4-yl)-2,5-dimethylpiperazin-1-yl)prop-2-en-1-one], the Binding % result is “++ (++ indicates binding activity from 50 to 80%)”.

On to `C=CC(=O)N1C[C@H](C)N(c2nc(OC[C@@H]3CCCN3C)nc3c(F)c(-c4c(C)ccc5cnn(C)c45)c(Cl)cc23)C[C@H]1C` (atropisomer, axis not shown) [Compound 235, 1-((2R,5S)-4-((R)-6-chloro-7-(1,6-dimethyl-1H-indazol-7-yl)-8-fluoro-2-(((S)-1-methylpyrrolidin-2-yl)methoxy)quinazolin-4-yl)-2,5-dimethylpiperazin-1-yl)prop-2-en-1-one], for which the Binding % result is reported as “+++ (+++ indicates binding activity greater than 80%)”.

Consider `C=CC(=O)N1C[C@H](C)N(c2nc(OC[C@H]3CCCN3C)nc3c(F)c(-c4c(C)ccc5cnn(C)c45)c(Cl)cc23)C[C@H]1C` (atropisomer, axis not shown) [Compound 236, 1-((2R,5S)-4-((R)-6-chloro-7-(1,6-dimethyl-1H-indazol-7-yl)-8-fluoro-2-(((R)-1-methylpyrrolidin-2-yl)methoxy)quinazolin-4-yl)-2,5-dimethylpiperazin-1-yl)prop-2-en-1-one], for which the Binding % result was “+ (+ indicates binding activity greater than 0% and up to 50%)”.

In the case of `C=CC(=O)N1C[C@@H](C)N(c2nc(N3CC(N(C)C)C3)nc3c(F)c(-c4c(C)ccc5cnn(C)c45)c(Cl)cc23)C[C@H]1C` (atropisomer, axis not shown) [Compound 242, 1-((2R,5R)-4-((S)-6-chloro-7-(1,6-dimethyl-1H-indazol-7-yl)-2-(3-(dimethylamino)azetidin-1-yl)-8-fluoroquinazolin-4-yl)-2,5-dimethylpiperazin-1-yl)prop-2-en-1-one], the Binding % result is “+ (+ indicates binding activity greater than 0% and up to 50%)”.

In the case of `C=CC(=O)N1C[C@@H](C)N(c2nc(N3CC(N(C)C)C3)nc3c(F)c(-c4c(C)ccc5cnn(C)c45)c(Cl)cc23)C[C@H]1C` (atropisomer, axis not shown) [Compound 243, 1-((2R,5R)-4-((R)-6-chloro-7-(1,6-dimethyl-1H-indazol-7-yl)-2-(3-(dimethylamino)azetidin-1-yl)-8-fluoroquinazolin-4-yl)-2,5-dimethylpiperazin-1-yl)prop-2-en-1-one], the Binding % result was “+++ (+++ indicates binding activity greater than 80%)”.

Take `C=CC(=O)N1C[C@@H](C)N(c2nc(N3CC(N(C)C)C3)nc3c(F)c(-c4c(C)ccc5cnn(C)c45)c(Cl)cc23)C[C@@H]1C` (atropisomer, axis not shown) [Compound 245, 1-((2S,5R)-4-((S)-6-chloro-7-(1,6-dimethyl-1H-indazol-7-yl)-2-(3-(dimethylamino)azetidin-1-yl)-8-fluoroquinazolin-4-yl)-2,5-dimethylpiperazin-1-yl)prop-2-en-1-one]: the Binding % entry is “+ (+ indicates binding activity greater than 0% and up to 50%)”.

As for `C=CC(=O)N1C[C@@H](C)N(c2nc(N3CC(N(C)C)C3)nc3c(F)c(-c4c(C)ccc5cnn(C)c45)c(Cl)cc23)C[C@@H]1C` (atropisomer, axis not shown) [Compound 246, 1-((2S,5R)-4-((R)-6-chloro-7-(1,6-dimethyl-1H-indazol-7-yl)-2-(3-(dimethylamino)azetidin-1-yl)-8-fluoroquinazolin-4-yl)-2,5-dimethylpiperazin-1-yl)prop-2-en-1-one], the Binding % entry was “+ (+ indicates binding activity greater than 0% and up to 50%)”.

`C=CC(=O)N1C[C@H](C)N(c2nc(N3CC(N(C)C)C3)nc3c(F)c(-c4c(C)ccc5cnn(C)c45)c(Cl)cc23)C[C@@H]1C` (atropisomer, axis not shown) [Compound 248, 1-((2S,5S)-4-((S)-6-chloro-7-(1,6-dimethyl-1H-indazol-7-yl)-2-(3-(dimethylamino)azetidin-1-yl)-8-fluoroquinazolin-4-yl)-2,5-dimethylpiperazin-1-yl)prop-2-en-1-one]: the Binding % entry was “+ (+ indicates binding activity greater than 0% and up to 50%)”.

For `C=CC(=O)N1C[C@H](C)N(c2nc(N3CC(N(C)C)C3)nc3c(F)c(-c4c(C)ccc5cnn(C)c45)c(Cl)cc23)C[C@@H]1C` (atropisomer, axis not shown) [Compound 249, 1-((2S,5S)-4-((R)-6-chloro-7-(1,6-dimethyl-1H-indazol-7-yl)-2-(3-(dimethylamino)azetidin-1-yl)-8-fluoroquinazolin-4-yl)-2,5-dimethylpiperazin-1-yl)prop-2-en-1-one], the Binding % result is “+ (+ indicates binding activity greater than 0% and up to 50%)”.

Take `C=CC(=O)N1C[C@@H](C)N(c2nc(N3CC(N(C)C)C3)nc3c(F)c(-c4c(C)ccc5[nH]nc(C6CC6)c45)c(Cl)cc23)C[C@H]1C` (atropisomer, axis not shown) [Compound 250, 1-((2R,5R)-4-((S)-6-chloro-7-(3-cyclopropyl-5-methyl-1H-indazol-4-yl)-2-(3-(dimethylamino)azetidin-1-yl)-8-fluoroquinazolin-4-yl)-2,5-dimethylpiperazin-1-yl)prop-2-en-1-one]: the Binding % result was “+ (+ indicates binding activity greater than 0% and up to 50%)”.

Take `C=CC(=O)N1C[C@@H](C)N(c2nc(N3CC(N(C)C)C3)nc3c(F)c(-c4c(C)ccc5[nH]nc(C6CC6)c45)c(Cl)cc23)C[C@H]1C` (atropisomer, axis not shown) [Compound 251, 1-((2R,5R)-4-((R)-6-chloro-7-(3-cyclopropyl-5-methyl-1H-indazol-4-yl)-2-(3-(dimethylamino)azetidin-1-yl)-8-fluoroquinazolin-4-yl)-2,5-dimethylpiperazin-1-yl)prop-2-en-1-one]: the Binding % entry is “+++ (+++ indicates binding activity greater than 80%)”.

`C=CC(=O)N1C[C@@H](C)N(c2nc(N3CC(N(C)C)C3)nc3c(F)c(-c4c(C)ccc5[nH]nc(C6CC6)c45)c(Cl)cc23)C[C@@H]1C` (atropisomer, axis not shown) [Compound 252, 1-((2S,5R)-4-((S)-6-chloro-7-(3-cyclopropyl-5-methyl-1H-indazol-4-yl)-2-(3-(dimethylamino)azetidin-1-yl)-8-fluoroquinazolin-4-yl)-2,5-dimethylpiperazin-1-yl)prop-2-en-1-one]: the Binding % entry is “+ (+ indicates binding activity greater than 0% and up to 50%)”.

`C=CC(=O)N1C[C@@H](C)N(c2nc(N3CC(N(C)C)C3)nc3c(F)c(-c4c(C)ccc5[nH]nc(C6CC6)c45)c(Cl)cc23)C[C@@H]1C` (atropisomer, axis not shown) [Compound 253, 1-((2S,5R)-4-((R)-6-chloro-7-(3-cyclopropyl-5-methyl-1H-indazol-4-yl)-2-(3-(dimethylamino)azetidin-1-yl)-8-fluoroquinazolin-4-yl)-2,5-dimethylpiperazin-1-yl)prop-2-en-1-one]: the Binding % result was “+ (+ indicates binding activity greater than 0% and up to 50%)”.
